Results taken from patent US11180495B2 (Abbisko Therapeutics Co., Ltd., priority 2017, dated 2021).

Experiments:
PDGFRA = PDGFRA (Homo sapiens, UniProt P16234); test: PDGFRA in vitro biochemical kinase study (Caliper EZ Reader); conditions: FAM-labeled polypeptide, Caliper EZ Reader II; read-out: Enzymatic experiment PDGFRA IC50
Protocol: (§1) In the present invention, the inhibitory activity of compounds against the CSF-1R activity was determined by using CSF-1R ADP-Glo assay. The compound-mediated inhibition effect was achieved by inhibiting the production of ADP from consumption of ATP, and the activities of compounds were evaluated by using the ADP-Glo kit (Promega, cat. No. V9101). The specific experimental process was as follows: • 1. The kinase reaction performed in the present invention was carried out in a 384-well plate (Perkinelmer, cat. No. 6007290), and 3.95 nM of CSF-1R, 500 μM of ATP and 0.2 mg/mL of polypeptide (Poly (Glu4, Try1), Sigma, cat. No. P0275) were respectively weighed and added to each well: • 2. following reagents were then added to each well to reach the final reaction system: 40 mM Tris, pH 7.5, 20 mM MgCl2, 0.01% Triton X-100, 0.1 mg/mL BSA, 2.5 mM DTT and 0.1% DMSO; • 3. the reaction was conducted at 30° C. for 60 min; • 4. then an equal volume of stop solution (ADP-Glo) was added to the kinase reaction system; • 5. the mixed solution was incubated at 25° C. for 60 min, and the kinase reaction was then terminated; • 6. a two-fold volume of detection reagent was then added to each well; • 7. the mixed solution was incubated at 25° C. for 30 min; • 8. the compound IC50 value was measured by using a plate reader (Tecan, M1000) and a four-parameter curve was generated in Graphpad Prism. B. KIT/PDGFRA In Vitro Biochemical Kinase Study • 1. Preparation of 1-fold kinase buffer and stop solution • 1.1 1-fold kinase buffer: 50 mM HEPES, pH 7.5, 0.0015% Brij-35. • 1.2 stop solution: 100 mM HEPES, pH 7.5, 0.015% Brij-35, 0.2% Coating Reagent #3 50 mM EDTA • 2. Preparation of compound solution • 2.1 Dilution of compound solution • 1) The final concentration of the compound solution was 40 μM. and the concentration of the prepared stock solution was 50 times of the final concentration, i.e., 2 mM. • 2) 80 μL of 100% DMSO was added to the second well of the 96-well plate, then 20 μL of 10 mM compound solution was added, and thereby 2 mM compound solution was prepared, 60 μL of 100% DMSO was added to other wells, 20 μL of compound was taken from the second well, added to the third well and diluted by 4 times. […]

KIT = KIT (Homo sapiens, UniProt P10721); test: KIT in vitro biochemical kinase study (Caliper EZ Reader); conditions: FAM-labeled polypeptide, Caliper EZ Reader II; read-out: Enzymatic experiment KIT IC50
KIT, sequence (P10721 26-976): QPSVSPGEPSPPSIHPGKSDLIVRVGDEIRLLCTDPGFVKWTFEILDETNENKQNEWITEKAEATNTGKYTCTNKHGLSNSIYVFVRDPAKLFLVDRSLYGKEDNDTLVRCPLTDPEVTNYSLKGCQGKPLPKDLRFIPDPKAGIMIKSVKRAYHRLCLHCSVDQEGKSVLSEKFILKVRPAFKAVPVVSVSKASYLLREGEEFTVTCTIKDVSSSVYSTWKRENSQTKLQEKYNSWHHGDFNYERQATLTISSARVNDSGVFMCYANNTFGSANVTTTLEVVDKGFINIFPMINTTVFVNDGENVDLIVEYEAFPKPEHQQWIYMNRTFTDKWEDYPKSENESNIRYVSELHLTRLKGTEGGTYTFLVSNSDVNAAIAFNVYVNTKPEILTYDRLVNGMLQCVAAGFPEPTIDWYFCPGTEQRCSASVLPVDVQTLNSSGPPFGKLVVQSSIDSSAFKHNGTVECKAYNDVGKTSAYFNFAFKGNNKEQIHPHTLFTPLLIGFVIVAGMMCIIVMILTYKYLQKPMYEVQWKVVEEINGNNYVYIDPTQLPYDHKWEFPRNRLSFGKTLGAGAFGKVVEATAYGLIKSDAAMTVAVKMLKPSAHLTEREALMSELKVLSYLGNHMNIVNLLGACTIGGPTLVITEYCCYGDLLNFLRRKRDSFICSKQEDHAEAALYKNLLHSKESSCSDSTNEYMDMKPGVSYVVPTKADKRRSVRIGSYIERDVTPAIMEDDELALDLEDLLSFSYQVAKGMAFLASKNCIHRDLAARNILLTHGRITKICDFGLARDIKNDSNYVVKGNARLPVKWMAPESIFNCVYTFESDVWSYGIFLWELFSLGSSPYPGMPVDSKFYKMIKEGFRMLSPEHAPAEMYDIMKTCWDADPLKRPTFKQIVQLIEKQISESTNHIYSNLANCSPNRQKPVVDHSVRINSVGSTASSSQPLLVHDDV
Protocol: as §1

PDGFRA, sequence (P16234 24-1089): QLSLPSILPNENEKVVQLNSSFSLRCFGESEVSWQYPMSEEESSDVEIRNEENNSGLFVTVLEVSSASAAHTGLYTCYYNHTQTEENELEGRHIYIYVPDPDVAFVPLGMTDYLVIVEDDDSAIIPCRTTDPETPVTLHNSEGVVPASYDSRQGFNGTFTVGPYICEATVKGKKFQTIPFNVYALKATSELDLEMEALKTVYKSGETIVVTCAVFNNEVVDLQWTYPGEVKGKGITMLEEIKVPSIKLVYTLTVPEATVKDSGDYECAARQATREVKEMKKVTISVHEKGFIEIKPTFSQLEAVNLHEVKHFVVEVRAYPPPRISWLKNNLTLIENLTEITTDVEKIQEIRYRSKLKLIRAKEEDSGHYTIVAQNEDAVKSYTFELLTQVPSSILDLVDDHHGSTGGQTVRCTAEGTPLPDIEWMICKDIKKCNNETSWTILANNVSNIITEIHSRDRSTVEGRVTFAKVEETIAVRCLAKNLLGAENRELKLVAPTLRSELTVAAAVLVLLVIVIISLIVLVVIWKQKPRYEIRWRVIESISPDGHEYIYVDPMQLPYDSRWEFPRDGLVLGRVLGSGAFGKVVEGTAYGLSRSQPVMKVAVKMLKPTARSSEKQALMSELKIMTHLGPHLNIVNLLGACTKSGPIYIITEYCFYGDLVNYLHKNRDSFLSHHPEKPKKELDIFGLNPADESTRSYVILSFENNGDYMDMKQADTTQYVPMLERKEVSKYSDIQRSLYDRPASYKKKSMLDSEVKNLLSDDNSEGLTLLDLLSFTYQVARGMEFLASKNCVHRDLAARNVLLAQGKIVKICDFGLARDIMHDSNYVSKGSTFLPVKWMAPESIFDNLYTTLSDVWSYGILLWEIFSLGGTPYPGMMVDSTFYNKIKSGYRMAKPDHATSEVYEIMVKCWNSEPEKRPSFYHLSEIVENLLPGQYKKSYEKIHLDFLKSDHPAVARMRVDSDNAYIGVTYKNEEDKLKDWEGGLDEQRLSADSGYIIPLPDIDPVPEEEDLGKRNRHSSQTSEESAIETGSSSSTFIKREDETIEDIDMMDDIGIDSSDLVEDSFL

IC50 (PDGFRA) [nM]	IC50 (KIT) [nM]	SMILES
9270	222	Cc1nc(-c2cnc(NC(C)C)[nH]c2=O)ccc1Cc1c[nH]c2ncc(F)cc12 [Example 5, 5-(5-((5-fluoro-1H-pyrrolo[2,3-b]pyridin-3-yl)methyl)-6-methylpyridin-2-yl)-2-(isopropylamino)pyrimidin-4(3H)-one]
998	50.8	Cc1nc(-c2cnc(NC(C)C)n(C)c2=O)ccc1Cc1c[nH]c2ncccc12 [Example 7, 5-(5-((1H-pyrrolo[2,3-b]pyridin-3-yl)methyl)-6-methylpyridin-2-yl)-2-(isopropylamino)-3-methylpyrimidin-4(3H)-one]
